How the values were obtained:
amyloid-β plaques = experiment: 18F-florbetapir PET scan in Alzheimer's disease patients; assay type: in vivo, human
amyloid-β [1] = conditions: ref Choi et al., 2009; cited from earlier work
amyloid-β [2] = conditions: ref Joshi et al., 2012, cited from earlier work
amyloid-β plaque = conditions: preliminary clinical data; ref Kung et al., 2012; cited from earlier work
[3] = Alzheimer's disease (n = 3), PET 50–65 min post-injection

CNc1ccc(/C=C/c2ccc(OCCOCCOCCF)nc2)cc1 [18F-florbetapir]
SUVR Anterior cingulate (amyloid-β plaques; [3]): 1.28 ± 0.05
SUVR Cortical average (amyloid-β plaques; [3]): 1.31 ± 0.10
SUVR Frontal cortex (amyloid-β plaques; [3]): 1.29 ± 0.13
SUVR Occipital cortex (amyloid-β plaques; [3]): 1.12 ± 0.25
SUVR Parietal cortex (amyloid-β plaques; [3]): 1.37 ± 0.21
SUVR Posterior cingulate (amyloid-β plaques; [3]): 1.48 ± 0.11
SUVR Subcortical white matter (amyloid-β plaques; [3]): 1.62 ± 0.16
SUVR Temporal cortex (amyloid-β plaques; [3]): 1.32 ± 0.15
18F-florbetapir scan, visual interpretation (amyloid-β plaques; subject AD01): Positive
18F-florbetapir scan, visual interpretation (amyloid-β plaques; subject AD02): Positive
18F-florbetapir scan, visual interpretation (amyloid-β plaques; subject AD03): Positive
Kd (amyloid-β [1]): 3.7 nM
Mean cortical-to-cerebellar SUVR (amyloid-β [2]; Alzheimer's disease patients): 1.42 ± 0.24
Greater SUVR in Alzheimer's disease patients relative to healthy controls (amyloid-β [2]): 42%

CN(C)c1ccc(-c2cn3cc([123I])ccc3n2)cc1 [123I-IMPY, ^123 I-2-(4′-dimethylaminophenyl)-6-iodo-imidazo[1,2-a]pyridine]
Target-to-background ratio for amyloid-β plaque labelling (amyloid-β plaque): not as robust as that of PET tracers

Source: publication PMC4949387 (Brain, 2015)
